Experimental data from patent publication EP2272817A1, “PAI-1 INHIBITOR” (Institute of Medicinal Molecular Design, Inc., priority 2008, dated 2009).
Like-named read-outs stand apart in the source and are kept apart here.

Target: recombinant human PAI-1 (Homo sapiens, UniProt P05121)
Test: biochemical
[1] = read-out: Inhibition Rate of PAI-1 Activity (%)
[2] = read-out: Inhibition Rate of PAI Activity (%)
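Also: PAI-1 preincubated with compound, then two-chain tPA added, residual tPA activity read with fluorogenic Pyr-Gly-Arg-MCA substrate after 30 min at room temperature.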

Chain of recombinant human PAI-1 (P05121 24-402): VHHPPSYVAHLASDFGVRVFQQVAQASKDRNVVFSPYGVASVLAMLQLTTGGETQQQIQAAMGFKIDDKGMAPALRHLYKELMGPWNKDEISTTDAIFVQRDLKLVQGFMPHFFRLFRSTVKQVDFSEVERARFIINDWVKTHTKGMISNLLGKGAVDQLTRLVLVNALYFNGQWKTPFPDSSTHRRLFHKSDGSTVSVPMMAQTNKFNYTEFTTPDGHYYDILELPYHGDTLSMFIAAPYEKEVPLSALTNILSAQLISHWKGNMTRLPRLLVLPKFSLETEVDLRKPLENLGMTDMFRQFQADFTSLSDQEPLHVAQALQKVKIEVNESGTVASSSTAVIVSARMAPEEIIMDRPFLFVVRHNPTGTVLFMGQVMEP

SMILES	inhibition at 5 µM [1]	inhibition at 10 µM [1]	inhibition at 25 µM [1]	other results
O=C(O)CCc1cc(-c2ccc(OC(F)(F)F)cc2)ccc1OCCCc1ccccc1 [Compound 101]	42%	73%	> 99%	–
Cc1cc(-c2ccc(OC(F)(F)F)cc2)cc(N(Cc2ccc(C(C)(C)C)cc2)C(=O)C(=O)O)c1 [Compound 178]	56%	88%	88%	–
O=C(O)C(=O)N(Cc1c(Cl)cccc1Cl)c1ccc(-c2ccc(OC(F)(F)F)cc2)cc1 [Compound 171]	22%	44%	81%	–
Cc1cccc(CN(C(=O)C(=O)O)c2ccc(-c3ccc(OC(F)(F)F)cc3)cc2)c1 [Compound 125]	15%	31%	–	–
O=C(O)COc1cc(-c2ccc(OC(F)(F)F)cc2)ccc1OCCCCc1ccccc1 [Compound 115]	34%	59%	90%	–
O=C(O)/C=C/c1cc(-c2ccc(OC(F)(F)F)cc2)ccc1Oc1ccc(OC(F)(F)F)cc1 [Compound 15]	–	–	–	inhibition at 5 µM [2]: 23%; inhibition at 10 µM [2]: 47%; inhibition at 25 µM [2]: 94%
CCCCc1ccc(-c2ccc(N(Cc3ccc(C(C)(C)C)cc3)C(=O)C(=O)O)cc2)cc1 [Compound 164]	40%	79%	96%	–
CC(C)(C)c1ccc(COc2cccc(Oc3ccc(OC(F)(F)F)cc3)c2/C=C/C(=O)O)cc1 [Compound 85]	40%	61%	85%	–
O=C(O)C(=O)N(Cc1ccccc1)c1ccc(Oc2ccc(OC(F)(F)F)cc2)cc1 [Compound 154]	–	3%	20%	–
Cc1cc(C)cc(COc2ccc(-c3ccc(OC(F)(F)F)cc3)cc2CCC(=O)O)c1 [Compound 59]	–	–	–	inhibition at 5 µM [2]: 25%; inhibition at 10 µM [2]: 53%; inhibition at 25 µM [2]: 77%
O=C(O)C(=O)N(Cc1ccc(OC(F)(F)F)cc1)c1ccc(-c2ccc(OC(F)(F)F)cc2)cc1 [Compound 159]	21%	45%	92%	–
O=C(O)CCc1cc(-c2ccc(OC(F)(F)F)cc2)ccc1OCc1ccc(F)cc1 [Compound 20]	–	–	–	inhibition at 10 µM [2]: 10%; inhibition at 25 µM [2]: 53%
CC(C)(C)c1ccc(COc2ccc(Oc3ccc(OC(F)(F)F)cc3)cc2/C=C/C(=O)O)cc1 [Compound 95]	28%	77%	96%	–
COc1ccc(CN(C(=O)C(=O)O)c2ccc(-c3ccc(OC(F)(F)F)cc3)cc2)cc1 [Compound 131]	–	10%	34%	–
CC(C)(Oc1ccc(-c2ccc(OC(F)(F)F)cc2)cc1Oc1ccc(C(C)(C)C)cc1)C(=O)O [Compound 110]	37%	51%	83%	–
CSc1ccc(-c2ccc(N(Cc3ccc(C(C)(C)C)cc3)C(=O)C(=O)O)cc2)cc1 [Compound 134]	–	14%	75%	–
CC(C)(C)c1ccc(CN(C(=O)C(=O)O)c2ccc(-c3ccc(C#N)cc3)cc2)cc1 [Compound 149]	–	3%	34%	–
CC(C)(C)c1ccc(N(C(=O)C(=O)O)c2ccccc2-c2ccc(OC(F)(F)F)cc2)cc1 [Compound 157]	25%	56%	96%	–
CC(C)(C)c1ccc(CN(C(=O)C(=O)O)c2ccc(-c3ccc(C(F)(F)F)cc3)cc2)cc1 [Compound 145]	7%	35%	74%	–
CC(C)(C)c1ccc(CN(C(=O)C(=O)O)c2ccc(-c3cccc([N+](=O)[O-])c3)cc2)cc1 [Compound 142]	–	3%	33%	–
CC(C)(C)c1ccc(N(C(=O)C(=O)O)c2ccc(Oc3ccc(OC(F)(F)F)cc3)cc2)cc1 [Compound 165]	27%	64%	96%	–
O=C(O)C(=O)N(Cc1ccc(-c2ccccc2)cc1)c1ccc(-c2ccc(OC(F)(F)F)cc2)cc1 [Compound 161]	27%	62%	> 99%	–
O=C(O)/C=C/c1cc(-c2ccc(OC(F)(F)F)cc2)ccc1OCc1cccc(C(F)(F)F)c1 [Compound 57]	–	–	–	inhibition at 5 µM [2]: 24%; inhibition at 10 µM [2]: 53%; inhibition at 25 µM [2]: 82%
O=C(O)CCc1cc(-c2ccc(OC(F)(F)F)cc2)ccc1OCc1ccc(OC(F)(F)F)cc1 [Compound 62]	–	–	–	inhibition at 5 µM [2]: 29%; inhibition at 10 µM [2]: 62%; inhibition at 25 µM [2]: 99%

Continued, in another order:

inhibition at 5 µM [1]	inhibition at 10 µM [1]	inhibition at 25 µM [1]	SMILES	other results
67%	–	–	CC(C)(C)c1ccc(Oc2ccc(-c3ccc(OC(F)(F)F)cc3)cc2CCC(=O)O)c(CCC(=O)O)c1 [Compound 542]	inhibition at 0.5 µM [1]: 0%; inhibition at 1 µM [1]: 14%
10%	11%	31%	O=C(O)C(=O)N(Cc1ccc(O)cc1)c1ccc(-c2ccc(OC(F)(F)F)cc2)cc1 [Compound 181]	–
41%	77%	95%	CC(C)(C)c1ccc(CN(C(=O)C(=O)O)c2ccccc2OCc2ccc(OC(F)(F)F)cc2)cc1 [Compound 620]	–
37%	71%	98%	CC(C)(C)c1ccc(COc2cc(CCC(=O)O)cc(Oc3ccc(OC(F)(F)F)cc3)c2)cc1 [Compound 410]	–
62%	91%	95%	CCCOc1ccc(N(CCCCc2ccccc2)C(=O)C(=O)O)cc1-c1ccc(OC(F)(F)F)cc1 [Compound 240]	–
3%	9%	31%	CCCCCN(C(=O)C(=O)O)c1ccc(-c2ccc(OC(F)(F)F)cc2)cc1 [Compound 254]	–
9%	16%	36%	O=C(O)C(=O)N(c1ccc(-c2ccc(OC(F)(F)F)cc2)cc1)C1CCCCC1 [Compound 253]	–
38%	69%	> 99%	CC(C)(C)c1ccc(CN(C(=O)CCC(=O)O)c2ccc(-c3ccc(OC(F)(F)F)cc3)cc2)cc1 [Compound 609]	–
3%	6%	34%	CCCCCCN(C(=O)C(=O)O)c1ccc(Oc2ccc(OC(F)(F)F)cc2)cc1 [Compound 252]	–
71%	91%	–	CCCCCOc1ccc(N(CCCCc2ccccc2)C(=O)C(=O)O)cc1-c1ccc(OC(F)(F)F)cc1 [Compound 244]	–
48%	80%	94%	CCCOc1ccc(N(CCCc2ccccc2)C(=O)C(=O)O)cc1-c1ccc(OC(F)(F)F)cc1 [Compound 229]	–
93%	97%	–	CCCCCCOc1ccc(-c2ccc(OC(F)(F)F)cc2)cc1N(CCCCc1ccccc1)C(=O)C(=O)O [Compound 245]	–
74%	92%	87%	CC(C)(C)c1ccc(CN(C(=O)C(=O)O)c2ccc(Cl)cc2Oc2ccc(OC(F)(F)F)cc2)cc1 [Compound 191]	–
83%	78%	–	O=C(O)C(=O)N(CCCCc1ccccc1)c1ccc(N2CCCCC2=O)c(-c2ccc(OC(F)(F)F)cc2)c1 [Compound 250]	–
